Assay results taken from US10772879B2, “Pharmaceutical formulations” (TORRENT PHARMACEUTICALS LIMITED, priority 2015, dated 2020).

How the values were obtained:
[1] = Oral bioavailability in rats (data on file); type: in vivo; conditions: administered orally to rats
[2] = Assessment of oral pharmacokinetics / bioavailability in jugular vein cannulated Wistar rats; type: in vivo; conditions: 10 mg/kg, Wistar rats (n=5), Mean
Description: Bioavailability of 1-(2-thien-2′-yl-2-oxo-ethyl)-3-(methanesulfonyl hydrazine carbonyl) pyridinium compound was checked using formulations as given in Table 2.
The assessment of oral pharmacokinetics was carried out. […] The blood samples were withdrawn at pre-determined time points; pre-dose (0.0 hr), 0.25, 0.5, 1, 2, 4, 6, 8, 12 and 24 hrs post dose. Plasma obtained at each time point was subjected to quantification of 1-(2-thien-2′-yl-2-oxo-ethyl)-3-(methanesulfonyl hydrazine carbonyl) pyridinium compound. LC-MS/MS method was used for the quantification of 1-(2-thien-2′-yl-2-oxo-ethyl)-3-(methanesulfonyl hydrazine carbonyl) pyridinium compound using an internal standard. The plasma samples were analyzed using solid phase extraction techniques in the calibration range of 0.500 ng/mL to 1000.000 ng/mL.
Data were presented with Mean±SD (standard deviation) and compared with 1-(2-thien-2′-yl-2-oxo-ethyl)-3-(methanesulfonyl hydrazine carbonyl) pyridinium compound PK data obtained after oral administration of solution of 1-(2-thien-2′-yl-2-oxo-ethyl)-3-(methanesulfonyl hydrazine carbonyl) pyridinium chloride in water under similar conditions.

[3] = phase I clinical studies, humans; cited from earlier work
[4] = clinical studies, administered orally; cited from earlier work
[5] = test system: animal models of Type II diabetes; conditions: cited from earlier work

| Substance | bioavailability [1] | AUClast [2] | Cmax [2] | oral bioavailability [3] | safety and tolerability [4] | effect on cardiomyopathy and nephropathy [5] |
| --- | --- | --- | --- | --- | --- | --- |
| 1-(2-thien-2′-yl-2-oxo-ethyl)-3-(methanesulfonyl hydrazine carbonyl) pyridinium bromide | very low | – | – | – | – | – |
| 1-(2-thien-2′-yl-2-oxo-ethyl)-3-(methanesulfonyl hydrazine carbonyl) pyridinium chloride | – | 222.86 ng·h/mL | 85.764 ng/mL | very low | safe and well tolerated | improve cardiomyopathy and nephropathy |
